Laboratory results reported in patent publication US20060069132A1, “Azolecarboxamide herbicides” (priority 2004, published 2006).

Tests used:
Assay in all cases: Test D flooded paddy test
Conditions in all cases: 21 days, scale 0 to 100
barnyardgrass = assay type: in vivo, Echinochloa crus-galli
Description: (§1) Three plastic pots (ca. 16-cm diameter) per rate were partially filled with sterilized Tama silt loam soil comprising a 35:50:15 ratio of sand, silt and clay and 2.6% organic matter. Separate plantings for each of the three pots were as follows. Seeds from the U.S. of ducksalad (Heteranthera limosa (Sw.) Willd.), smallflower umbrella sedge (Cyperus difformis L.) and purple redstem (Ammannia coccinea Rottb.), were planted into one 16-cm pot for each rate. Seeds from the U.S. of rice flatsedge (Cyperus iria L.), bearded sprangletop (Leptochloa fascicularis (Lam.) Gray), one stand of 9 or 10 water seeded rice seedlings (Oryza sativa L. cv. ‘Japonica—M202’), and one stand of 6 transplanted rice seedlings (Oryza sativa L. cv. ‘Japonica—M202’) were planted into one 16-cm pot for each rate. Seeds from the U.S. of barnyardgrass (Echinochloa crus-galli (L.) Beauv.), late watergrass (Echinochloa oryzicola Vasinger), early watergrass (Echinochloa oryzoides (Ard.) Fritsch) and junglerice (Echinochloa colona (L.) Link) were planted into one 16-cm pot for each rate. Plantings were sequential so that crop and weed species were at the 2.0 to 2.5-leaf stage at time of treatment.
(§2) Potted plants were grown in a greenhouse with day/night temperature settings of 29.5/26.7° C., and supplemental balanced lighting was provided to maintain a 16-hour photoperiod. Test pots were maintained in the greenhouse until test completion.
(§3) At time of treatment, test pots were flooded to 3 cm above the soil surface, treated by application of test compounds directly to the paddy water, and then maintained at that water depth for the duration of the test. Effects of treatments on rice and weeds were visually evaluated by comparison to untreated controls after 21 days. Plant response ratings are reported on a 0 to 100 scale; where 0 is no effect and 100 is complete control. A dash (-) response means no test result.

rice flatsedge = assay type: in vivo, Cyperus iria
Description: as §1, §2, §3

[1] = test system: water seeded rice seedlings; assay type: in vivo, Oryza sativa
Description: as §1, §2, §3

CCn1nc(C(C)(C)C)cc1C(=O)Nc1cc(C(=O)NCC2CC2)ccn1 [Compound 155]
Plant response rating, Barnyardgrass (barnyardgrass; 32 g ai/ha): 0
Plant response rating, Barnyardgrass (barnyardgrass; 64 g ai/ha): 0
Plant response rating, Barnyardgrass (barnyardgrass; 125 g ai/ha): 20
Plant response rating, Barnyardgrass (barnyardgrass; 250 g ai/ha): 35
Plant response rating, Barnyardgrass (barnyardgrass; 500 g ai/ha): 80
Plant response rating, Flatsedge, Rice (rice flatsedge; 32 g ai/ha): 0
Plant response rating, Flatsedge, Rice (rice flatsedge; 64 g ai/ha): 0
Plant response rating, Flatsedge, Rice (rice flatsedge; 125 g ai/ha): 30
Plant response rating, Flatsedge, Rice (rice flatsedge; 250 g ai/ha): 60
Plant response rating, Flatsedge, Rice (rice flatsedge; 500 g ai/ha): 70
Plant response rating, Rice, Water Seeded ([1]; 32 g ai/ha): 0
Plant response rating, Rice, Water Seeded ([1]; 64 g ai/ha): 0
Plant response rating, Rice, Water Seeded ([1]; 125 g ai/ha): 25
Plant response rating, Rice, Water Seeded ([1]; 250 g ai/ha): 35
Plant response rating, Rice, Water Seeded ([1]; 500 g ai/ha): 40
